Source: ChEMBL document CHEMBL3045561, “Feeding deterrents from Zanthoxylum schinifolium against two stored-product insects” (J Agric Food Chem, 2009)

What was measured:
Type in all cases: functional
Tribolium castaneum [1] = assay: Feeding deterrent activity against adult Tribolium castaneum (red flour beetle) on compound pre-treated wheat flour disks assessed as relative food consumption rate at 100 ppm after 3 days by flour disk bioassay (reference value: 143.22 +/-4.32 ug/mg/day)
Sitophilus zeamais [2] = assay: Feeding deterrent activity against adult Sitophilus zeamais on compound pretreated wheat flour disks assessed as relative food consumption rate at 10 ppm after 3 days by flour disk bioassay (reference value: 122.72 +/-4.32 ug/mg/day)
Sitophilus zeamais [3] = assay: Feeding deterrent activity against adult Sitophilus zeamais on compound pretreated wheat flour disks assessed as relative growth rate at 30 ppm after 3 days by flour disk bioassay (reference value: 13.61 +/-1.13 ug/mg/day)
Sitophilus zeamais [4] = assay: Feeding deterrent activity against adult Sitophilus zeamais on compound pretreated wheat flour disks assessed as food utilization rate at 10 ppm after 3 days by flour disk bioassay (reference value: 11.09 +/-1.12%)
Tribolium castaneum [5] = assay: Feeding deterrent activity against adult Tribolium castaneum (red flour beetle) on compound pre-treated wheat flour disks assessed as food utilization rate at 300 ppm after 3 days by flour disk bioassay (reference value: 20.59 +/-1.47%)
Sitophilus zeamais [6] = assay: Feeding deterrent activity against adult Sitophilus zeamais on compound pretreated wheat flour disks at 300 ppm after 3 days by flour disk bioassay
Tribolium castaneum [7] = assay: Feeding deterrent activity against adult Tribolium castaneum (red flour beetle) on compound pre-treated wheat flour disks assessed as relative food consumption rate at 1000 ppm after 3 days by flour disk bioassay (reference value: 143.22 +/-4.32 ug/mg/day)
Sitophilus zeamais [8] = assay: Feeding deterrent activity against adult Sitophilus zeamais on compound pretreated wheat flour disks at 100 ppm after 3 days by flour disk bioassay
Sitophilus zeamais [9] = assay: Feeding deterrent activity against adult Sitophilus zeamais on compound pretreated wheat flour disks assessed as food utilization rate at 300 ppm after 3 days by flour disk bioassay (reference value: 11.09 +/-1.12%)
Sitophilus zeamais [10] = assay: Feeding deterrent activity against adult Sitophilus zeamais on compound pretreated wheat flour disks assessed as food utilization rate at 30 ppm after 3 days by flour disk bioassay (reference value: 11.09 +/-1.12%)
Sitophilus zeamais [11] = assay: Feeding deterrent activity against adult Sitophilus zeamais on compound pretreated wheat flour disks assessed as mortality at 100 ppm after 3 days by flour disk bioassay (reference value: 0%)
Tribolium castaneum [12] = assay: Feeding deterrent activity against adult Tribolium castaneum (red flour beetle) on compound pre-treated wheat flour disks assessed as mortality at 3 ppm after 3 days by flour disk bioassay (reference value: 0%)
Sitophilus zeamais [13] = assay: Feeding deterrent activity against adult Sitophilus zeamais on compound pretreated wheat flour disks at 30 ppm after 3 days by flour disk bioassay
Tribolium castaneum [14] = assay: Feeding deterrent activity against adult Tribolium castaneum (red flour beetle) on compound pre-treated wheat flour disks at 30 ppm after 3 days by flour disk bioassay
Sitophilus zeamais [15] = assay: Feeding deterrent activity against adult Sitophilus zeamais on compound pretreated wheat flour disks assessed as relative growth rate at 10 ppm after 3 days by flour disk bioassay (reference value: 13.61 +/-1.13 ug/mg/day)
Sitophilus zeamais [16] = assay: Feeding deterrent activity against adult Sitophilus zeamais on compound pretreated wheat flour disks assessed as food utilization rate at 3 ppm after 3 days by flour disk bioassay (reference value: 11.09 +/-1.12%)
Tribolium castaneum [17] = assay: Feeding deterrent activity against adult Tribolium castaneum (red flour beetle) on compound pre-treated wheat flour disks assessed as mortality at 100 ppm after 3 days by flour disk bioassay (reference value: 0%)
Tribolium castaneum [18] = assay: Feeding deterrent activity against adult Tribolium castaneum (red flour beetle) on compound pre-treated wheat flour disks assessed as relative food consumption rate at 3 ppm after 3 days by flour disk bioassay (reference value: 143.22 +/-4.32 ug/mg/day)
Tribolium castaneum [19] = assay: Feeding deterrent activity against adult Tribolium castaneum (red flour beetle) on compound pre-treated wheat flour disks at 100 ppm after 3 days by flour disk bioassay
Sitophilus zeamais [20] = assay: Feeding deterrent activity against adult Sitophilus zeamais on compound pretreated wheat flour disks assessed as mortality at 3 ppm after 3 days by flour disk bioassay (reference value: 0%)
Tribolium castaneum [21] = assay: Feeding deterrent activity against adult Tribolium castaneum (red flour beetle) on compound pre-treated wheat flour disks assessed as relative growth rate at 300 ppm after 3 days by flour disk bioassay (reference value: 29.49 +/-1.35 ug/mg/day)
Sitophilus zeamais [22] = assay: Feeding deterrent activity against adult Sitophilus zeamais on compound pretreated wheat flour disks assessed as relative growth rate at 100 ppm after 3 days by flour disk bioassay (reference value: 13.61 +/-1.13 ug/mg/day)
Sitophilus zeamais [23] = assay: Feeding deterrent activity against adult Sitophilus zeamais on compound pretreated wheat flour disks assessed as food utilization rate at 100 ppm after 3 days by flour disk bioassay (reference value: 11.09 +/-1.12%)
Tribolium castaneum [24] = assay: Feeding deterrent activity against adult Tribolium castaneum (red flour beetle) on compound pre-treated wheat flour disks assessed as relative growth rate at 1000 ppm after 3 days by flour disk bioassay (reference value: 29.49 +/-1.35 ug/mg/day)
Tribolium castaneum [25] = assay: Feeding deterrent activity against adult Tribolium castaneum (red flour beetle) on compound pre-treated wheat flour disks assessed as food utilization rate at 10 ppm after 3 days by flour disk bioassay (reference value: 20.59 +/-1.47%)
Tribolium castaneum [26] = assay: Feeding deterrent activity against adult Tribolium castaneum (red flour beetle) on compound pre-treated wheat flour disks assessed as relative growth rate at 30 ppm after 3 days by flour disk bioassay (reference value: 29.49 +/-1.35 ug/mg/day)
Sitophilus zeamais [27] = assay: Feeding deterrent activity against adult Sitophilus zeamais on compound pretreated wheat flour disks assessed as mortality at 300 ppm after 3 days by flour disk bioassay (reference value: 0%)

| Compound | Activity (Tribolium castaneum [1]) | Activity (Sitophilus zeamais [2]) | Activity (Sitophilus zeamais [3]) | ECI (Sitophilus zeamais [4]) | ECI (Tribolium castaneum [5]) | FDI (Sitophilus zeamais [6]) | Activity (Tribolium castaneum [7]) | FDI (Sitophilus zeamais [8]) | ECI (Sitophilus zeamais [9]) | ECI (Sitophilus zeamais [10]) | mortality at 100 ppm (Sitophilus zeamais [11]) | mortality at 3 ppm (Tribolium castaneum [12]) | FDI (Sitophilus zeamais [13]) | FDI (Tribolium castaneum [14]) | Activity (Sitophilus zeamais [15]) | ECI (Sitophilus zeamais [16]) | mortality at 100 ppm (Tribolium castaneum [17]) | Activity (Tribolium castaneum [18]) | FDI (Tribolium castaneum [19]) | mortality at 3 ppm (Sitophilus zeamais [20]) | other results |
| --- | --- | --- | --- | --- | --- | --- | --- | --- | --- | --- | --- | --- | --- | --- | --- | --- | --- | --- | --- | --- | --- |
| CCCCCCCc1cc(=O)c2ccccc2n1C [SCHINIFOLINE] | 53.37 µg/mg/day | 114.13 µg/mg/day | 9.06 µg/mg/day | 10.73% | 7.53% | 72.35% | 2.13 µg/mg/day | 59.19% | 5.92% | 10.07% | 0% | 0% | 26.69% | 45.07% | 12.25 µg/mg/day | 11.21% | 2% | 139.51 µg/mg/day | 66.28% | 0% | Activity (Tribolium castaneum [21]): 1.6 µg/mg/day; Activity (Sitophilus zeamais [22]): 3.79 µg/mg/day; ECI (Sitophilus zeamais [23]): 7.54%; Activity (Tribolium castaneum [24]): 0.07 µg/mg/day; ECI (Tribolium castaneum [25]): 20.32%; Activity (Tribolium castaneum [26]): 13.13 µg/mg/day; mortality at 300 ppm (Sitophilus zeamais [27]): 6% |
| COc1ccc2c(OC)c3ccoc3nc2c1OC [SKIMMIANINE] | 61.88 µg/mg/day | 112.77 µg/mg/day | 9.6 µg/mg/day | 10.67% | 10.03% | 60.24% | 15.72 µg/mg/day | 47.32% | 6.81% | 10.34% | 0% | 0% | 26.12% | 30.12% | 12.03 µg/mg/day | 10.98% | 2% | 137.89 µg/mg/day | 57.45% | 0% | Activity (Tribolium castaneum [21]): 3.17 µg/mg/day; Activity (Sitophilus zeamais [22]): 4.99 µg/mg/day; ECI (Sitophilus zeamais [23]): 8.37%; Activity (Tribolium castaneum [24]): 1.23 µg/mg/day; ECI (Tribolium castaneum [25]): 19.41%; Activity (Tribolium castaneum [26]): 15.31 µg/mg/day; mortality at 300 ppm (Sitophilus zeamais [27]): 4% |
